{"source": "paper PMC9814548", "about": "“Chemoenzymatic synthesis of 3-ethyl-2,5-dimethylpyrazine by L-threonine 3-dehydrogenase and 2-amino-3-ketobutyrate CoA ligase/L-threonine aldolase” (Communications Chemistry, 2021)", "target": "T1, CnKBL (Cupriavidus necator, UniProt Q0K313, H138F)", "T1 construct": "gene kbl; gene cloned in pET-28a (NcoI/XhoI), E. coli BL21(DE3), Ni-Sepharose and gel filtration; dimer; PLP on K246", "T1 sequence (Q0K313 entry or part of it H138F)": "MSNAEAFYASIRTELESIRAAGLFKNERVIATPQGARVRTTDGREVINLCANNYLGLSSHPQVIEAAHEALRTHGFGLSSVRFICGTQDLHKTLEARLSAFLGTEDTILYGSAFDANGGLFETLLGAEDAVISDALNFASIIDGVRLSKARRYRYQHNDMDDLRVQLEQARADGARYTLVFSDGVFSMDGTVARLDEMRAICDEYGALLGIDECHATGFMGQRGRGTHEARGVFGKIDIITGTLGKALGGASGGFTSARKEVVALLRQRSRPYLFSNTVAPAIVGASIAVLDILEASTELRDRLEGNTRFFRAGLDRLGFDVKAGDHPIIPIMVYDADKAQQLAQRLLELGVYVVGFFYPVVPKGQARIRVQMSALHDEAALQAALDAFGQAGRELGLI", "assay": "threonine aldolase activity, coupled alcohol dehydrogenase assay", "assay_type": "biochemical", "conditions": "TA activity not detectable", "data": [{"smiles": "C[C@@H](O)[C@H](N)C(=O)O", "note": "[L-Thr]", "values": [{"measurement": "threonine aldolase activity, coupled alcohol dehydrogenase assay", "result": "TA activity of the H138F variant decreased to an undetectable level compared with CnKBL(WT)"}]}]}
